Laboratory results: patent publication US8858914B2 (Endocyte, Inc., priority 2002, dated 2014)

What was measured:
[1] = test system: arthritic joints (folate receptor expressing macrophages); details: rat paws
Text: Targeting a photosensitizer to arthritic joints allow phototherapy to be applied to the arthritic joint while preventing toxicity to other tissues. […] One potential application of arthritis imaging is in the area of sport animal medicine. Race animals, such as dogs or horses, that have arthritis, could be diagnosed in an easy, inexpensive, and nonradioactive manner by using fluorescent imaging agents.

[2] = test system: M109 tumor nodules; test: imaging of metastatic tumor nodules of M109 cell origin (ip or iv inoculation); format: in vivo, mouse
Text: In order to test the ability of folate-fluorescein to facilitate detection of microscopic tumor nodules, metastatic tumors of M109 cell origin were induced by inoculation of cells either into the peritoneal cavity (ip) or femoral vein (iv) of the syngeneic mice. After allowing sufficient time for tumor growth, tumor loci were again imaged by intravenous administration of folate-fluorescein followed by laser excitation.

[3] = test system: folate receptor-expressing tumor tissue
[4] = test system: L1210 tumor nodules; test: imaging of metastatic L1210 lesions after iv inoculation; format: in vivo, mouse
Text: To further explore the ability of folate-fluorescein to image small metastatic lesions, L1210 cells were also inoculated intravenously into syngeneic mice and the various anatomical regions were again imaged as above. Since L1210 cells are lymphocytic in origin and relatively small in size, they are capable of forming tumor nodules throughout the body after iv injection, rather than becoming entrapped primarily in the lung capillary network. […] Further, the animal's spleen was almost entirely filled with minute tumor loci (FIG. 9a) and was consequently enlarged to roughly twice its normal size. Tumor nodules were also found in muscle tissue near the shoulder (FIG. 9b) and in the brain, spinal cord, and along the pleura.

[5] = test system: M109 and L1210 tumors; test: whole-tissue fluorescence imaging of tumors vs adjacent normal tissue after iv injection; format: in vivo, mouse; details: M109 (Balb/c) and L1210 (DBA) tumors, 2 h after iv injection, argon laser 488 nm
Method: Whole-tissue fluorescent imaging is performed using the imaging system 110 shown in FIG. 2 including an argon laser 12 (Spectra-Physics, Mountain View, Calif.) operating at 488 nm with a total laser power of 200 mW reaching the 2 cm sample field of view 114. Fluorescence is detected by a colored CCD camera 116 such as a JAI CV-53200N manufactured by Edmund Industrial Optics, Barrington, N.J. with a sensing area of 768×494 pixels and a pixel size of […]. An f/5.6 152-457 mm 10× CCD zoom lens 118, also produced by Edmund Industrial Optics, Barrington, N.J., is used to collect fluorescence from the 2.0 cm×2.0 cm field of view 114. A band pass filter 120 with […] 80% T at 515-585 nm (Inter, Inc., Socorro, N.M.) is placed between the lens 118 and the CCD Camera 116 in order to reject laser light 20 and suppress tissue auto-fluorescence outside the fluorescein fluorescence band. The images are digitally acquired using SNAPPY software v. 4.0 manufactured by Play, Inc., Sacramento, Calif.
The light 20 of laser 12 is aimed via a plurality of mirrors 26 such that the light 20 passes through a diffusing lens 124 to illuminate the field of view 114 as shown in FIG. 2. […]
In fact, the differences in fluorescence intensity were readily apparent to the naked eye without the assistance of optical equipment as shown in the upper pictures of FIGS. 5a-c. […]

folate-γ-fluorescein [folate-fluorescein]
contrast between arthritic and non-arthritic tissues [1]: discernable contrast
fluorescence of tumor metastases compared to adjacent nonmalignant tissue ([2]; intravenously inoculated mice, lungs): all tumor metastases fluoresced intensely
size of metastatic tumor nodules readily observable ([2]; lungs of intravenously inoculated mice, iv conjugate, laser excitation): smaller than 0.5 mm
fluorescence intensity of liver and muscle tissues, injected vs noninjected mice ([3]; liver and muscle tissues not expressing the folate receptor): no difference in fluorescence intensity
fluorescence of tumor tissue from injected mice relative to autofluorescence of noninjected controls ([3]; tumor tissue, 2 h after injection of 8.7 μg, laser excitation): approximately fivefold
fluorescence of L1210 tumor nodules throughout the body ([4]; most tissues of the body, laser illumination): no nodules were identified that did not fluoresce
detection of microscopic L1210 nodules in liver under laser illumination ([4]; under and top surface of the liver): clearly revealed under laser illumination
fluorescence of tumors compared with adjacent normal tissues [5]: significantly more fluorescent than adjacent normal tissues
